Measured values as given in paper PMC10819888, “Benzimidazole-Based Derivatives as Apoptotic Antiproliferative Agents: Design, Synthesis, Docking, and Mechanistic Studies” (Molecules, 2024).
Where two headings read alike, the source gives them in different places.

Key:
Ovarian Cancer subpanel = assay: NCI-60 five-dose assay, subpanel; format: cell-based, human; settings: Ovarian Cancer
HCC-2998 = assay: NCI-60 five-dose assay; format: cell-based, human; settings: HCC-2998, Colon Cancer
A549/ATCC = assay: NCI-60 five-dose assay; format: cell-based, human; settings: A549/ATCC, Non-Small Cell Lung Cancer
MDA-MB-435 = assay: NCI-60 five-dose assay; format: cell-based, human; settings: MDA-MB-435, Melanoma
SK-MEL-5 = assay: NCI-60 five-dose assay; format: cell-based, human; settings: SK-MEL-5, Melanoma
Colon Cancer subpanel = assay: NCI-60 five-dose assay, subpanel; format: cell-based, human; settings: Colon Cancer
NCI-H226 = assay: NCI-60 five-dose assay; format: cell-based, human; settings: NCI-H226, Non-Small Cell Lung Cancer
BRAF^V600E = assay: biochemical
HOP-62 = assay: NCI-60 five-dose assay; format: cell-based, human; settings: HOP-62, Non-Small Cell Lung Cancer
K-562 = assay: NCI-60 five-dose assay; format: cell-based, human; settings: K-562, Leukemia
MDA-MB-468 = assay: NCI-60 five-dose assay; format: cell-based, human; settings: MDA-MB-468, Breast Cancer
SNB-75 = assay: NCI-60 five-dose assay; format: cell-based, human; settings: SNB-75, CNS Cancer
M14 = assay: NCI-60 five-dose assay; format: cell-based, human; settings: M14, Melanoma
CAKI-1 = assay: NCI-60 five-dose assay; format: cell-based, human; settings: CAKI-1, Renal Cancer
CCRF-CEM = assay: NCI-60 five-dose assay; format: cell-based, human; settings: CCRF-CEM, Leukemia
HCT-116 = assay: NCI-60 five-dose assay; format: cell-based, human; settings: HCT-116, Colon Cancer
MDA-MB-231 = assay: NCI-60 five-dose assay; format: cell-based, human; settings: MDA-MB-231, Breast Cancer
SNB-19 = assay: NCI-60 five-dose assay; format: cell-based, human; settings: SNB-19, CNS Cancer
HCT-15 = assay: NCI-60 five-dose assay; format: cell-based, human; settings: HCT-15, Colon Cancer
MALME-3M = assay: NCI-60 five-dose assay; format: cell-based, human; settings: MALME-3M, Melanoma
TK-10 = assay: NCI-60 five-dose assay; format: cell-based, human; settings: TK-10, Renal Cancer
SF-539 = assay: NCI-60 five-dose assay; format: cell-based, human; settings: SF-539, CNS Cancer
CNS Cancer subpanel = assay: NCI-60 five-dose assay, subpanel; format: cell-based, human; settings: CNS Cancer
[1] = system: full panel of 60 human tumor cell lines; assay: NCI-60 five-dose assay, full panel; format: cell-based
Leukemia subpanel = assay: NCI-60 five-dose assay, subpanel; format: cell-based, human; settings: Leukemia
IGROV1 = assay: NCI-60 five-dose assay; format: cell-based, human; settings: IGROV1, Ovarian Cancer
[2] = Homo sapiens, average sensitivity of all subpanel cell lines, read-out: GI50 Subpanel MID b
[3] = Homo sapiens, read-out: GI50 Conc. per Cell Line
[4] = Homo sapiens, read-out: LC50 (the source's name)

Chain of BRAF^V600E (P28028 whole entry V585E): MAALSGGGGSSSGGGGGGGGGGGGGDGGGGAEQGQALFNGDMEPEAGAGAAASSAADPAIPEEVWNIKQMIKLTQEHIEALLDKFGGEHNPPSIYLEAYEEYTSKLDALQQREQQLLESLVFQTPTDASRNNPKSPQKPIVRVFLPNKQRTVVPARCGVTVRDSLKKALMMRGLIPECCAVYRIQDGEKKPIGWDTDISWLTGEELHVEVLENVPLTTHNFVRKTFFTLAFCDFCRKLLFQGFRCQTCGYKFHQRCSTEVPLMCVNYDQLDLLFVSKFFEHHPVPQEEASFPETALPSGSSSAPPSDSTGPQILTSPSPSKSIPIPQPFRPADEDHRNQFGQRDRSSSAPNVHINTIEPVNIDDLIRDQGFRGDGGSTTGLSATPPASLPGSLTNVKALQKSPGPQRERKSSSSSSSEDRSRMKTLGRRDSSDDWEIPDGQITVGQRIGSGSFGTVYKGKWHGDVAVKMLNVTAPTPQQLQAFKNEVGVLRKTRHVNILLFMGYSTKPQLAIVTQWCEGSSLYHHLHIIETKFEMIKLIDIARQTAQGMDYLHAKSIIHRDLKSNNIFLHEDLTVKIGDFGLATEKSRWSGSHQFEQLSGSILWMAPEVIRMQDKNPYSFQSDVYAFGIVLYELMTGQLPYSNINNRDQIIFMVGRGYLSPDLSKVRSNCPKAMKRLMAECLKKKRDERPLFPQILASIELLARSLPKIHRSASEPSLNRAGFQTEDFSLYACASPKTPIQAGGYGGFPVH

With `COc1ccc(C=NNC(=O)c2ccc3[nH]c(-c4ccc(Cl)cc4)nc3c2)cc1` [Compound 4g, N′-(4-Methoxybenzylidene)-2-(4-chlorophenyl)-1H-benzimidazole-5-carbohydrazide] the GI50 (Ovarian Cancer subpanel; [2]) was 3.05 µM, the “GI50 Selectivity Ratio (MID a/MID b)” value (Ovarian Cancer subpanel) was 0.83 and the TGI (HCC-2998) was 6.44 µM. For the same compound, the GI50 (HCC-2998; [3]) was 2.57 µM, the CC50 (HCC-2998; [4]) was 37.8 µM and the TGI (A549/ATCC) was 5.65 µM. For the same compound, the GI50 (A549/ATCC; [3]) was 2.46 µM, the CC50 (A549/ATCC; [4]) was 48.1 µM and the GI50 (MDA-MB-435; [3]) was 3.11 µM. The CC50 (MDA-MB-435; [4]) was 45.5 µM, the TGI (MDA-MB-435) was 9.84 µM and the GI50 (SK-MEL-5; [3]) was 1.89 µM. The CC50 (SK-MEL-5; [4]) was 7.95 µM, the TGI (SK-MEL-5) was 3.88 µM and the “GI50 Selectivity Ratio (MID a/MID b)” value (Colon Cancer subpanel) was 0.96. For the same compound, the GI50 (Colon Cancer subpanel; [2]) was 2.63 µM, the GI50 (NCI-H226; [3]) was 1.79 µM and the CC50 (NCI-H226; [4]) was 13.5 µM. The TGI (NCI-H226) was 4.43 µM, the IC50 (BRAF^V600E) was 0.6 ± 0.05 µM and the TGI (HOP-62) was 6.37 µM. The GI50 (HOP-62; [3]) was 1.88 µM, the CC50 (HOP-62; [4]) was 53.6 µM and the GI50 (K-562; Homo sapiens, K562, read-out: GI50 Conc. per Cell Line) was 2.69 µM. The CC50 (K-562; Homo sapiens, K562, read-out: LC50 (the source's name)) was over 100 µM, the TGI (K-562) was 11.20 µM and the LC50 (concentration killing 50% of cells) (MDA-MB-468; Homo sapiens) was 12.6 µM. It also gave a GI50 (MDA-MB-468; [3]) of 1.94 µM, a TGI (MDA-MB-468) of 4.55 µM and a GI50 (SNB-75; [3]) of 1.53 µM. It also gave a CC50 (SNB-75; [4]) of 25.7 µM, a TGI (SNB-75) of 4.57 µM and a GI50 (M14; [3]) of 2.41 µM. For the same compound, the CC50 (M14; [4]) was 40.5 µM, the TGI (M14) was 7.76 µM and the TGI (CAKI-1) was 6.03 µM. For the same compound, the GI50 (CAKI-1; [3]) was 2.1 µM, the CC50 (CAKI-1; [4]) was 25.6 µM and the TGI (CCRF-CEM) was over 100 µM. For the same compound, the GI50 (CCRF-CEM; [3]) was 4.9 µM, the CC50 (CCRF-CEM; [4]) was over 100 µM and the TGI (HCT-116) was 5.12 µM. The GI50 (HCT-116; [3]) was 2.14 µM, the CC50 (HCT-116; [4]) was 18.9 µM and the GI50 (MDA-MB-231; [3]) was 2.42 µM. It also gave a CC50 (MDA-MB-231; [4]) of 18.8 µM, a TGI (MDA-MB-231) of 5.45 µM and a GI50 (SNB-19; [3]) of 3.13 µM. It also gave a CC50 (SNB-19; [4]) of 49.6 µM, a TGI (SNB-19) of 7.95 µM and a TGI (HCT-15) of 12.80 µM. For the same compound, the GI50 (HCT-15; [3]) was 3.24 µM, the CC50 (HCT-15; [4]) was 82 µM and the LC50 (MALME-3M; Homo sapiens) was 7.9 µM. For the same compound, the GI50 (MALME-3M; [3]) was 1.67 µM, the TGI (MALME-3M) was 3.63 µM and the GI50 (TK-10; [3]) was 2.95 µM. It also gave a CC50 (TK-10; [4]) of 56.7 µM, a TGI (TK-10) of 6.59 µM and a GI50 (SF-539; [3]) of 1.73 µM. The CC50 (SF-539; [4]) was 6.92 µM, the TGI (SF-539) was 3.46 µM and the “GI50 Selectivity Ratio (MID a/MID b)” value (CNS Cancer subpanel) was 1.15. It also gave a GI50 (CNS Cancer subpanel; [2]) of 2.19 µM, a GI50 ([1]; average sensitivity of all cell lines, read-out: MID a (GI50)) of 2.52 µM and a GI50 ([1]; five-dose assay, range over cell lines, read-out: GI50 range over the examined cell lines) of 0.997 to 7.81 µM. The GI50 (Leukemia subpanel; [2]) was 2.88 µM, the “GI50 Selectivity Ratio (MID a/MID b)” value (Leukemia subpanel) was 0.87 and the GI50 (IGROV1; Homo sapiens, IGROV-1, read-out: GI50 Conc. per Cell Line) was 1.65 µM. The CC50 (IGROV1; Homo sapiens, IGROV-1, read-out: LC50 (the source's name)) was 9.57 µM and the TGI (IGROV1) was 3.97 µM.
